Results taken from US20110201629A1, “CYCLOHEXYL AMIDE DERIVATIVES AS CRF RECEPTOR ANTAGONISTS” (priority 2010, published 2011).

How the values were obtained:
CRF-1 = target: T1, CRF-1 (UniProt P34998); test: CRF-1 receptor antagonism, HTRF cAMP assay in CHO cells; assay type: cell-based, human; settings: Biological data Table 2; inhibition of CRF induced cAMP response in CHO cells, EC50 concentration of CRF
T1 sequence (P34998 1-415): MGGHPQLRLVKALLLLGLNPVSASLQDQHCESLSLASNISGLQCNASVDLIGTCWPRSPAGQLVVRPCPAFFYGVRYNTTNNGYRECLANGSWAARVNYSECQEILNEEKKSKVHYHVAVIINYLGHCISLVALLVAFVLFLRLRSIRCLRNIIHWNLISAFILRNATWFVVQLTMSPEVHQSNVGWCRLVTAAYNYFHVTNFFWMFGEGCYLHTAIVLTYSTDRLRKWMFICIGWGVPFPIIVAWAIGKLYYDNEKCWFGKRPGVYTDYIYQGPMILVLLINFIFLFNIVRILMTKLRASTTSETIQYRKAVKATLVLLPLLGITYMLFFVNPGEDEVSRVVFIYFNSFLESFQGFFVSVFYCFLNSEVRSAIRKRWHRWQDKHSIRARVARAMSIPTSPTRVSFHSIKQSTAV
Method: (§1) The CRF-1 and CRF-2 receptor antagonistic activity of the agents of the invention has been determined in vitro in the following assay:
(§2) Chinese hamster ovary (CHO) cells expressing either the human or rat recombinant CRF-1 or human CRF-2α (Chen et al, Proc Natl Acad Sci USA 90, 8967-8971, 1993; Liaw et al, Endocrinology 137, 72-77, 1996) are propagated in Dulbecco's modified Eagle medium supplemented with 10% foetal calf serum, non-essential amino acids, 100 U/ml penicillin, 100 mg/l streptomycin and 1 g/l geneticin. CHO cells expressing the rat CRF-2β receptor (Wu et al, Endocrinology 148, 1675-1687, 2007) are propagated in HAM's-F12 Glutamax supplemented with 10% foetal calf serum, 100 IU/ml penicillin, 100 mg/l streptomycin, 600 μg/ml hygromycin, 10 μg/ml blasticidin and induced with 1 μg/ml of tetracyclin for 24 hours prior to experimentation. For cyclic AMP determinations the Homogeneous Time-Resolved Fluoresce (HTRF) cAMP dynamic 2 kit (Cisbio International, France) was used as per manufacturers' instructions. CHO cells, previously cryopreserved at 3×10^6 viable cells per ml of cell recovery media (Cat no. 12648-010, Invitrogen), were thawed, centrifuged for 7 mins at 1200 rpm and resuspended in serum free media to give a concentration of 0.5×10^6 cells per/ml. Compounds of the invention, prepared in DMSO, and subsequently diluted 50 fold in assay buffer (1× Hanks balanced salt solution, 0.2% (w/v) bovine serum albumin, 1.7 mM isobutylmethylxanthine and 10 mM Hepes, pH7.4) were then added onto the 384 well low volume black assay plate (Corning Inc, US, Cat. 3676). 2000 cells/well were then added to the assay plate further diluting the compound 2 fold and then the plate was incubated for 15 mins at room temperature. Following incubation, buffer containing a 5 times final concentration of agonist, typically r/h CRF is added to the plate and incubated for 30 min at room temperature. Finally, d2 dye labeled cAMP and cryptate labeled anti-cAMP antibody, both made in lysis buffer, are added to the plate followed by a settling period of 1 hour at room temperature. During the settling period cAMP produced by the cells competes with the d2 labelled cAMP for the anti-cAMP cryptate. The plate is read on the Pherastar (BMG, Germany). Increasing levels of endogenous cAMP produced by cells can be followed by a decrease of FRET fluorescent signal and vice versa. Values represented by a change in arbitrary fluorescence units are converted into cAMP concentrations by use of a standard curve, the reagents for which are supplied with the kit. Antagonist dose response curves (1 nM-31.6 μM) are constructed and tested in the presence of an EC50 concentration of CRF relevant to the receptor (hCRF-1=3 nM, hCRF-2α=2 nM, rCRF-1=1 nM and rCRF-2β=0.1 nM). IC50 values of antagonists are calculated by fitting the percent inhibition of CRF induced cAMP response by increasing concentrations of the antagonists. The fit is performed using the nonlinear logistic function of the Activitybase software package v 5.4.5.27 (IDBS, UK).

CRF-2 = target: T2, CRF-2 (UniProt Q13324); test: CRF-2 receptor antagonism, HTRF cAMP assay in CHO cells; assay type: cell-based, human; settings: Biological data Table 2; inhibition of CRF induced cAMP response in CHO cells, EC50 concentration of CRF
T2 sequence (Q13324 1-411): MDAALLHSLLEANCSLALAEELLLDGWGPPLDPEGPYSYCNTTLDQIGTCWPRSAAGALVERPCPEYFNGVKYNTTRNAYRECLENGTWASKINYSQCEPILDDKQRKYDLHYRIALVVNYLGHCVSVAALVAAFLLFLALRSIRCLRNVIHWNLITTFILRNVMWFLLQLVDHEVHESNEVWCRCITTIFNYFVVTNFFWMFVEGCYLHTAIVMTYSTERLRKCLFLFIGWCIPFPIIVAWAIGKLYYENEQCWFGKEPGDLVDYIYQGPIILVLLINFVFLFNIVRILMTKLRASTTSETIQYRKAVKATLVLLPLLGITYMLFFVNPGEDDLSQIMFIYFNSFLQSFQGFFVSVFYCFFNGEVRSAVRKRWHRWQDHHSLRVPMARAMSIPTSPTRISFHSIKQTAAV
Method: as §1, §2

SMILES | IC50 (CRF-1) [nM] | IC50 (CRF-2) [nM]
Cc1ncc(Cl)cc1C(=O)N[C@H]1CC[C@H](CN2C(=O)C(C)(C)c3ccc(Cl)cc32)CC1 [Example 2.29, Trans-5-Chloro-N-[4-(6-chloro-3,3-dimethyl-2-oxo-2,3-dihydro-indol-1-ylmethyl)-cyclohexyl]-2-methyl-nicotinamide] | 14 | 4620
CCn1c(=O)n(C[C@H]2CC[C@H](NC(=O)c3cc(Cl)cnc3C)CC2)c2ccccc21 [Example 2.46, Trans-5-Chloro-N-[4-(3-ethyl-2-oxo-2,3-dihydro-benzoimidazol-1-ylmethyl)-cyclohexyl]-2-methyl-nicotinamide] | 44 | 256
Cc1ncc(Cl)cc1C(=O)N[C@H]1CC[C@H](Cn2c(=O)n(CC(C)C)c3ccccc32)CC1 [Example 2.47, Trans-5-Chloro-N-[4-(3-isobutyl-2-oxo-2,3-dihydro-benzoimidazol-1-ylmethyl)-cyclohexyl]-2-methyl-nicotinamide] | 18 | 296
Cc1ncc(Cl)cc1C(=O)N[C@H]1CC[C@H](Cn2c(=O)n(C)c3ccccc32)CC1 [Example 2.50, Trans-5-Chloro-2-methyl-N-[4-(3-methyl-2-oxo-2,3-dihydro-benzoimidazol-1-ylmethyl)-cyclohexyl]-nicotinamide] | 86 | 3560

More lines, now with the values ahead:

IC50 (CRF-1) [nM] | IC50 (CRF-2) [nM] | SMILES
47 | 3870 | O=C(N[C@H]1CC[C@H](CN2C(=O)Cc3ccc(F)cc32)CC1)c1cc(C(F)(F)F)ccc1Cl [Example 3.2, Trans-2-Chloro-N-[4-(6-fluoro-2-oxo-2,3-dihydro-indol-1-ylmethyl)-cyclohexyl]-5-trifluoromethyl-bcnzamide]
18 | 1950 | CCn1c(=O)n(C[C@H]2CC[C@H](NC(=O)c3cc(C(F)(F)F)ccc3Cl)CC2)c2ccccc21 [Example 3.4, Trans-2-Chloro-N-[4-(3-ethyl-2-oxo-2,3-dihydro-bcnzoimidazol-1-ylmethyl)-cyclohexyl]-5-trifluoromethyl-benzamide]
